# Reference: paper PMC8948292, “Combining PEGylated mito-atovaquone with MCT and Krebs cycle redox inhibitors as a potential strategy to abrogate tumor cell proliferation” (Scientific Reports, 2022)
# Target: mitochondrial complex I (MiaPaCa-2 cells) (Homo sapiens, UniProt O75251+O75306+P03886)
# Assay: Complex I-dependent oxygen consumption in permeabilized cells, Seahorse XF-96
# Format: cell-based
# Details: 24 h, with Mito-PEG5-ATO
# Experimental: Mitochondrial oxygen consumption was measured using the Seahorse XF-96 Extracellular Flux Analyzer (Agilent, North Billerica, MA)[3],[33],[67],[68]. To determine the intact cell mitochondrial function of MiaPaCa-2 cells in response to Mito-PEG-ATO analogs, we used the bioenergetic function assay previously described[2],[3]. […] From these measurements, indices of mitochondrial function were determined as previously described[2],[3]. For mitochondrial complex activities assays, after cells were treated with Mito-PEG-ATO analogs for 24 h, the OCR-based assessment of mitochondrial complex activities was carried out on acutely permeabilized cells in the presence of different mitochondrial substrates, i.e., pyruvate/malate for complex I and duroquinol for complex III[3],[32],[34],[69]. Rotenone, malonate, and antimycin A (Sigma-Aldrich, St. Louis, MO) were used as specific inhibitors of mitochondrial complexes I, II, and III, respectively. Briefly, cells that were intact after treatments were immediately permeabilized using the Seahorse XF Plasma Membrane Permeabilizer (Agilent). The mitochondrial complex I-induced OCR was assayed in mannitol and sucrose buffer[69] containing 10 mM pyruvate and 1.5 mM malate (substrates for complex I) and 10 mM malonate (which inhibits complex II activities). […] The IC50 values were determined as previously reported.
# Chain of mitochondrial complex I (MiaPaCa-2 cells) (O75306 34-463): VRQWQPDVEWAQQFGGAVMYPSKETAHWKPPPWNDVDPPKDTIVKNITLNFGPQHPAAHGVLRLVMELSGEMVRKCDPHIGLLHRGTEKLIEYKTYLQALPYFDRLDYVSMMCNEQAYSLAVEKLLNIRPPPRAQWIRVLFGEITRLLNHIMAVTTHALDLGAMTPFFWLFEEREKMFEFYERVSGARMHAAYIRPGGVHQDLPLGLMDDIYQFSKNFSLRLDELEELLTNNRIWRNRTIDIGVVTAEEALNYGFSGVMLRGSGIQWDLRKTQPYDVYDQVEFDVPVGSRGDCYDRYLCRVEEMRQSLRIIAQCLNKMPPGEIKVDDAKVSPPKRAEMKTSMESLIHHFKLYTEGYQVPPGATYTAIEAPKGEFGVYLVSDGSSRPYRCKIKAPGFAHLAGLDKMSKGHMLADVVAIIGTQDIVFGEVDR
# Chain of mitochondrial complex I (MiaPaCa-2 cells) (O75251 39-213): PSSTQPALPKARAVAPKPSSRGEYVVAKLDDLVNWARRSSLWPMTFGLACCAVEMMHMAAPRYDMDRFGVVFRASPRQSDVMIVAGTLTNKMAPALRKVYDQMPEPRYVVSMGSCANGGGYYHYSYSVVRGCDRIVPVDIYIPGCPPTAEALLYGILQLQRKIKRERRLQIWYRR
# Chain of mitochondrial complex I (MiaPaCa-2 cells) (P03886 whole entry): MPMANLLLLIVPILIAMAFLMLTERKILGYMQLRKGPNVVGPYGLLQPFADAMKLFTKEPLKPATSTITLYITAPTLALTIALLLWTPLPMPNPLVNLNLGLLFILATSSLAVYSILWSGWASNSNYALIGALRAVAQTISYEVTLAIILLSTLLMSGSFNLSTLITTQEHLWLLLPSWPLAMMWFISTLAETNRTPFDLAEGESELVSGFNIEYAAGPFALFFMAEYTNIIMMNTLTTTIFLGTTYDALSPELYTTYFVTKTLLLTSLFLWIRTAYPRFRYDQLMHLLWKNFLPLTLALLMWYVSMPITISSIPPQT
compound,measurement,value
Cc1[nH]nc(C(F)(F)F)c1Cc1sc2c(c1C(=O)N1C[C@](C)(O)CO1)c(=O)n(C)c(=O)n2C(C)C [AZD-3965],Effect on the decrease in complex I-induced oxygen consumption induced by Mito-PEG5-ATO,Neither AZD-3965 nor V-9302 significantly affected
